Test results from patent publication US20120277265A1, “NOVEL POLYQUINOLINE DERIVATIVES AND THE THERAPEUTIC USE THEREOF” (CENTRE NATIONAL DE LA RECHERCHE SCIENTIFIQUE (C.N.R.S.), priority 2005, published 2012).

How the values were obtained:
[1] = Stability constants of competing chelators for Zn(II) (NIST / Sillen-Martell; log Kapp by Eq. 1-2); details: at pH = 7.4, by Eq. 1 and 2
Source text: log Kapp=log K-log α (Eq. 1)
α=[H^+]^n/(Ka1×Ka2×Ka3× . . . Kan)+[H^+]^n-1/(Ka1×Ka2×Ka3× . . . Kan-1)+ . . . +[H^+]/Ka1+1 (Eq. 2)

[2] = 25° C., cited from earlier work; for log K1 (stability constant for the MLc species), Zn(II): ionic strength 0.1-0.2, metal ion to chelator 1/1

SMILES	log K1 app, Zn(II) [1]	log K1 (stability constant for the MLc species), Zn(II) [2]	log K2 (stability constant for the M(Lc)2 species), Zn(II) ([2]; ionic strength 0.1-0.2)
NCCNCCNCCN [Trien, triethylenetetramine]	7.8	11.9	–
O=C(O)CN(CC(=O)O)CC(=O)O [NTA, nitrilotriacetic acid]	8.0	10.5	3.8
